Results taken from patent publication US20260109700A1, “NITROGEN-CONTAINING HETEROCYCLIC COMPOUNDS AND PHARMACEUTICALLY ACCEPTABLE SALTS THEREOF, PREPARATION METHOD THEREFOR, AND THE USE THEREOF” (NEUSHEN THERAPEUTICS (SHANGHAI) CO., LTD, priority 2022, published 2026).
pEC50: −log10 of the molar value. Blank lines part the entries; values can stand above or below the compound they belong to.

Tests used:
human M4 receptor = target: T1, human M4 receptor (Homo sapiens, UniProt P08173); test: PAM activity on M4 receptor, FLIPR CALCIUM 6 assay in M4-Gα15-CHO cells with acetylcholine; type: cell-based; conditions: PAM mode with acetylcholine agonist, FLIPR calcium signal
T1 construct: expressed in transfected cells
T1 sequence (P08173 1-479): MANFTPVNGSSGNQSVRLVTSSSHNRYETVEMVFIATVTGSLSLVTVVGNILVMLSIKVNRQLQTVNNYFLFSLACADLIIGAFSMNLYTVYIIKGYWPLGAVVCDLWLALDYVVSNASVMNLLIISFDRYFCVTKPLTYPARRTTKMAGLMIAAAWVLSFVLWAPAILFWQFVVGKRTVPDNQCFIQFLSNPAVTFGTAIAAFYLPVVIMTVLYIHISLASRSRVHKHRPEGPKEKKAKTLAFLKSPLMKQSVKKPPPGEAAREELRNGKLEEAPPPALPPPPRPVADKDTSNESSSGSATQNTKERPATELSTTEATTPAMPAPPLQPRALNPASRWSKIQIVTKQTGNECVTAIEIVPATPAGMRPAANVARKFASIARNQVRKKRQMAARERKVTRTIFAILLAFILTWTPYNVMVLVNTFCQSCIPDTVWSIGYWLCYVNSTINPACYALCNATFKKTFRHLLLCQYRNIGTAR
Description: The activity of compounds on M4 receptor was determined by FLIPR CALCIUM 6 ASSAY KIT using a stable transfected cell line expressing human M4 receptor (M4-Gα15-CHO).
1. This study uses a CHO cell line stably expressing M4-Gα15 receptor, which expresses human CHRM4 and GNA15 genes, respectively.
2. Cell treatment: M4-Gα15-CHO cells were cultured in F-12 medium containing 10% fetal bovine serum, 0.4 mg/mL hygromycin B, and 0.8 mg/mL geneticin G418, with a culture temperature of 37° C. and a CO2 concentration of 5%. The old media was removed and the cells were washed once with phosphate buffered saline. 1 mL of trypsin solution was then added, and the mixture was incubated at 37° C. for approximately 2 minutes. After the cells were detached from the dish, approximately 5 mL of complete media pre-warmed at 37° C. was added. The cell suspension was gently pipetted to separate the aggregated cells. The cell suspension was transferred to a sterile centrifuge tube and centrifuged at 1000 rpm for 5 minutes.
1. Cell plating: M4-Gα15-CHO cells were digested and collected, then resuspended and counted, and seeded into a 384-well cell plate at a density of 1.2×10^4 cells/25 μL/well. The cell plate was then incubated in a 5% CO2 incubator at 37° C. for approximately 20 hours.
2. Preparation of loading buffer according to the instructions of FLIPR CALCIUM 6 ASSAY KIT after 24 hours: Component A was freeze-thawed to room temperature, and diluted with assay buffer and probenecid solution to obtain a loading buffer, which was kept at room temperature for later use.
3. The medium was removed from the cell plate, and 35 µL of loading buffer was quickly added to each well. After centrifugation, the cell plate was incubated at 37° C. in the dark for 120 minutes.
4. A working solution of the compound to be tested was prepared, 5 μL of which was transferred to the corresponding cell wells, and incubated at 37° C. in the dark for 30 minutes.
5. 30 nM acetylcholine agonist working solution was prepared and transferred to a 384-well loading plate at 20 μL/well.
6. The cell plate, the loading plate, and the pipette tip were placed at the corresponding positions of the FLIPR instrument. 10 μL of the agonist diluted in step 5 was added to the experimental wells using FLIPR, and data were collected at a wavelength of 515 nm to 575 nm.
7. The signal value was plotted against compound concentration. Curve fitting and EC50 calculation were performed by nonlinear regression method using GraphPad Prism software.
1. 0.5 mol/L 2-(4-(2-hydroxyethyl)piperazine)ethanesulfonic acid buffer was mixed with Hanks' balanced salt solution (pH 7.4) at a volume ratio of 1:24 to prepare an assay buffer. 10 mL of assay buffer was added to a vial of CALCIUM 6 ASSAY KIT Component A in the form of lyophilized powder, and aliquoted and stored at −20° C.
2. Probenecid powder was dissolved in 1 mol/L sodium hydroxide solution to a final concentration of […]. The assay buffer, freeze-thawed Component A, and probenecid solution were mixed at a volume ratio of 44:5:1 to prepare a loading buffer.

[1] = system: patients with schizophrenia; conditions: phase Ib; cited from earlier work
mice = conditions: genetic mouse model of schizophrenia; cited from earlier work
[2] = Pharmacokinetic properties in vivo in mice (iv and oral); conditions: mouse, plasma, CD-1 mice, oral 2.0 mg/kg; for bioavailability / clearance / Vd / Cmax: iv 1.0 mg/kg; for bioavailability: read-out: Bioavailability F; for clearance: read-out: Clearance CL; for Vd: read-out: Volume of distribution at steady state Vdss; for AUC(0-t): read-out: Area under the curve AUC0-last, po; for half-life: read-out: Half-life T1/2, po (converted); for Cmax: read-out: Peak concentration Cmax
Description: The compounds obtained in the examples of the present disclosure were evaluated for their pharmacokinetic properties in vivo in CD-1 mice.
The compounds were tested for their pharmacokinetic characteristics in rodents after intravenous injection and oral administration following standard protocols. In the experiment, the candidate compound was prepared into a clear solution or suspension with a specified vehicle, and administered to three mice via single-dose intravenous injection and oral administration, respectively. The vehicle for both intravenous injection and oral administration was 5% dimethyl sulfoxide+95% (10% polyethylene glycol (15)-hydroxystearate in water). Whole blood samples within 24 hours were collected into a commercial EDTA2K anticoagulant tube, followed by centrifugation to obtain the upper plasma sample, and acetonitrile solution containing internal standard was added to precipitate proteins. After centrifugation, the supernatant was mixed with an equal volume of water, and after another centrifugation, the supernatant was taken for injection. Plasma concentration was quantitatively analyzed using LCMS/MS analysis method, and pharmacokinetic parameters were calculated.

patients = conditions: cited from earlier work

pEC50 (human M4 receptor): 6.05
Structure (SMILES): CCc1nnc(C)c2c1CN(C(=O)CC1CN(c3ccnc(OCC(F)(F)F)c3)C1)C2 [Example 110]

pEC50 (human M4 receptor): 6.32
Structure (SMILES): Cc1nnc(C)c2c1CN(C(=O)CC1CN(c3ccnc(SC(F)(F)F)c3)C1)C2 [Example 68]

pEC50 (human M4 receptor): 5.75
Structure (SMILES): Cc1nsc(N2CC(CC(=O)N3Cc4c(C)nnc(N5CCC5)c4C3)C2)n1 [Example 50]

Structure (SMILES): Cc1cc(C)c2c(n1)CN(C(=O)CC1CN(c3ccnc(C(F)(F)F)c3)C1)C2 [CVL-231]
PANSS total score [1]: significantly reduce

pEC50 (human M4 receptor): 5.86
Structure (SMILES): Cc1nnc(N2CCC2)c2c1CN(C(=O)CC1CN(c3ccnc(C(F)(F)F)c3)C1C)C2 (stereo not drawn) [Example 51]

pEC50 (human M4 receptor): 6.60
Structure (SMILES): Cc1nnc(N2CCC2)c2c1CN(C(=O)CC1CN(c3ccnc(OCC(F)(F)F)c3)C1)C2 [Example 47]

Structure (SMILES): Cc1c(Cc2ccc(-n3cccn3)cc2)cc2c(c1F)CN([C@H]1COCC[C@@H]1O)C2=O [TAK-071]
deficits in memory cognition, social competence, and sensory-motor gating (mice): significantly ameliorates

pEC50 (human M4 receptor): 6.46
bioavailability [2]: 86.6%
clearance [2]: 17.1 mL/min/kg
Vd [2]: 2.3 L/kg
AUC(0-t) [2]: 1690 ng·h/mL
half-life [2]: 1.13 h
Cmax [2]: 614 ng/mL
Structure (SMILES): Cc1nnc(N2CCC2)c2c1CN(C(=O)CC1CN(c3ccnc(C(F)(F)F)c3)C1)C2 [Example 12]

pEC50 (human M4 receptor): 6.54
bioavailability [2]: 80.6%
clearance [2]: 7.65 mL/min/kg
Vd [2]: 3.72 L/kg
AUC(0-t) [2]: 3470 ng·h/mL
half-life [2]: 4.65 h
Cmax [2]: 345 ng/mL
Structure (SMILES): Cc1nnc(C)c2c1CN(C(=O)CC1CN(c3ccnc(O[C@H](C)C(F)(F)F)c3)C1)C2 [Example 89]

pEC50 (human M4 receptor): 6.41
bioavailability [2]: 82.7%
clearance [2]: 3.32 mL/min/kg
Vd [2]: 1.53 L/kg
AUC(0-t) [2]: 8040 ng·h/mL
half-life [2]: 4.78 h
Cmax [2]: 827 ng/mL
Structure (SMILES): Cc1nnc(C)c2c1CN(C(=O)CC1CN(c3ccnc(OCC(F)(F)F)c3)C1)C2 [Example 67]

pEC50 (human M4 receptor): 6.41
Structure (SMILES): Cc1nnc(C)c2c1CN(C(=O)CC1CN(c3ccnc(C(F)(F)F)c3)C1)C2 [Example 24]

pEC50 (human M4 receptor): 5.95
Structure (SMILES): Cc1nnc(C2CC2)c2c1CN(C(=O)CC1CN(c3ccnc(OCC(F)(F)F)c3)C1)C2 [Example 98]

pEC50 (human M4 receptor): 6.24
Structure (SMILES): Cc1nnc(C)c2c1CN(C(=O)CC1CN(c3ccnc(O[C@@H](C)C(F)(F)F)c3)C1)C2 [Example 116]

Structure (SMILES): CCCCCCOc1nsnc1C1=CCCN(C)C1 [Xanomeline]
toxic and side effects (patients; peripheral nervous system and digestive tract): serious toxic and side effects
cognitive function of patients (patients; phase II clinical trial, Alzheimer's disease): improvement in the cognitive function
